Values of other authors in article PMC8405607 (British Journal of Cancer, 2021).

How the values were obtained:
p53 = tested on: p53; design: method as in PMID 21643018; conditions: prolonged exposure; cited from earlier work
[1] = design: method as in PMID 24309210, PMID 23084521, PMID 28240971; conditions: liposarcoma trial; cited from earlier work

| SMILES | p53 mutations (p53) | patients experiencing grade 4 neutropenia [1] | patients experiencing prolonged grade 4 thrombocytopenia [1] |
| --- | --- | --- | --- |
| COc1ccc(C2=N[C@@H](c3ccc(Cl)cc3)[C@@H](c3ccc(Cl)cc3)N2C(=O)N2CCNC(=O)C2)c(OC(C)C)c1 [Nutlin-3a] | increased incidence of p53 mutations | – | – |
| CCOc1cc(C(C)(C)C)ccc1C1=N[C@@](C)(c2ccc(Cl)cc2)[C@@](C)(c2ccc(Cl)cc2)N1C(=O)N1CCN(CCCS(C)(=O)=O)CC1 [RG7112] | – | 30% | 15% |
